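Dose response: 5 concentrations. Exposure: 48 h. Format: 96-well plates. Endpoint: linear interpolation; highest concentration if not reached. At the TGI there is no net growth.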
The compounds below were run on OVCAR-5 ovarian (assay: growth of human tumour cells (NCI), 48 h).
With `O=C1C=CC(=O)c2c(O)c(N3CCN(c4ccccn4)CC3)c(Cl)c(O)c21` the TGI was 17.9 µM.
`C/C(=N\NC(=S)Nc1ccccc1)c1nc2ncccc2[nH]1` gave a TGI of 61 µM.
With `c1cc(-c2ccc(-c3ccc(C4=NCCCN4)cc3)o2)ccc1C1=NCCCN1` the TGI was > 100 µM.
For `Oc1c(CN2CCOCC2)ccc(CN2CCOCC2)c1O`, the TGI was > 100 µM.
`CCC(O)CC1OC2(CCC1C)CC1OC(=O)/C=C\C(C)(O)C(O)C(C)C(O)C(OC3CC(OC)C(O)C(C)O3)C(O)C(C)(O)CCC/C=C/C3CC(C)COC3(O)CC(O2)C1C` (stereo not given) showed a TGI of 53 µM.

These compounds were tested on UACC-62 melanoma (assay: growth of human tumour cells (NCI), 48 h).
In the case of `O=C1C=CC(=O)c2c(O)c(N3CCN(c4ccccn4)CC3)c(Cl)c(O)c21`, the TGI is reported as 2.01 µM.
`c1cc(-c2ccc(-c3ccc(C4=NCCCN4)cc3)o2)ccc1C1=NCCCN1` was tested, and the TGI was > 100 µM.
Work on `Oc1c(CN2CCOCC2)ccc(CN2CCOCC2)c1O` yielded a TGI of 61.2 µM.
Work on `CCC(O)CC1OC2(CCC1C)CC1OC(=O)/C=C\C(C)(O)C(O)C(C)C(O)C(OC3CC(OC)C(O)C(C)O3)C(O)C(C)(O)CCC/C=C/C3CC(C)COC3(O)CC(O2)C1C` (stereo not given) yielded a TGI of 32.2 µM.

Each compound was assayed on SW-620 colon (assay: growth of human tumour cells (NCI), 48 h).
Work on `O=C1C=CC(=O)c2c(O)c(N3CCN(c4ccccn4)CC3)c(Cl)c(O)c21` yielded a TGI of 1.94 µM.
In the case of `C/C(=N\NC(=S)Nc1ccccc1)c1nc2ncccc2[nH]1`, the TGI is reported as > 100 µM.
With `c1cc(-c2ccc(-c3ccc(C4=NCCCN4)cc3)o2)ccc1C1=NCCCN1` the TGI was > 100 µM.
With `Oc1c(CN2CCOCC2)ccc(CN2CCOCC2)c1O` the TGI was > 100 µM.
With `CCC(O)CC1OC2(CCC1C)CC1OC(=O)/C=C\C(C)(O)C(O)C(C)C(O)C(OC3CC(OC)C(O)C(C)O3)C(O)C(C)(O)CCC/C=C/C3CC(C)COC3(O)CC(O2)C1C` (stereo not given) the TGI was > 100 µM.

What follows are compounds tested on MOLT-4 leukemia (assay: growth of human tumour cells (NCI), 48 h).
In the case of `O=C1C=CC(=O)c2c(O)c(N3CCN(c4ccccn4)CC3)c(Cl)c(O)c21`, the TGI is reported as 2.01 µM.
In the case of `C/C(=N\NC(=S)Nc1ccccc1)c1nc2ncccc2[nH]1`, the TGI is reported as 16.8 µM.
For `c1cc(-c2ccc(-c3ccc(C4=NCCCN4)cc3)o2)ccc1C1=NCCCN1`, the TGI was > 100 µM.
In the case of `Oc1c(CN2CCOCC2)ccc(CN2CCOCC2)c1O`, the TGI is reported as > 100 µM.
With `CCC(O)CC1OC2(CCC1C)CC1OC(=O)/C=C\C(C)(O)C(O)C(C)C(O)C(OC3CC(OC)C(O)C(C)O3)C(O)C(C)(O)CCC/C=C/C3CC(C)COC3(O)CC(O2)C1C` (stereo not given) the TGI was 7.84 µM.

The compounds below were run on HCT-15 colon (assay: growth of human tumour cells (NCI), 48 h).
`O=C1C=CC(=O)c2c(O)c(N3CCN(c4ccccn4)CC3)c(Cl)c(O)c21` was tested, and the TGI was 2.48 µM.
Work on `C/C(=N\NC(=S)Nc1ccccc1)c1nc2ncccc2[nH]1` yielded a TGI of 19.8 µM.
In the case of `c1cc(-c2ccc(-c3ccc(C4=NCCCN4)cc3)o2)ccc1C1=NCCCN1`, the TGI is reported as > 100 µM.
In the case of `Oc1c(CN2CCOCC2)ccc(CN2CCOCC2)c1O`, the TGI is reported as > 100 µM.
For `CCC(O)CC1OC2(CCC1C)CC1OC(=O)/C=C\C(C)(O)C(O)C(C)C(O)C(OC3CC(OC)C(O)C(C)O3)C(O)C(C)(O)CCC/C=C/C3CC(C)COC3(O)CC(O2)C1C` (stereo not given), the TGI was 56.8 µM.

These compounds were tested on NCI/ADR-RES ovarian (assay: growth of human tumour cells (NCI), 48 h).
Work on `O=C1C=CC(=O)c2c(O)c(N3CCN(c4ccccn4)CC3)c(Cl)c(O)c21` yielded a TGI of 8.98 µM.
`C/C(=N\NC(=S)Nc1ccccc1)c1nc2ncccc2[nH]1` showed a TGI of 22 µM.
For `c1cc(-c2ccc(-c3ccc(C4=NCCCN4)cc3)o2)ccc1C1=NCCCN1`, the TGI was > 100 µM.
With `Oc1c(CN2CCOCC2)ccc(CN2CCOCC2)c1O` the TGI was > 100 µM.
`CCC(O)CC1OC2(CCC1C)CC1OC(=O)/C=C\C(C)(O)C(O)C(C)C(O)C(OC3CC(OC)C(O)C(C)O3)C(O)C(C)(O)CCC/C=C/C3CC(C)COC3(O)CC(O2)C1C` (stereo not given) showed a TGI of 45.1 µM.

Each compound was assayed on NCI-H460 lung (assay: growth of human tumour cells (NCI), 48 h).
Work on `O=C1C=CC(=O)c2c(O)c(N3CCN(c4ccccn4)CC3)c(Cl)c(O)c21` yielded a TGI of 8.53 µM.
For `C/C(=N\NC(=S)Nc1ccccc1)c1nc2ncccc2[nH]1`, the TGI was 13.8 µM.
For `c1cc(-c2ccc(-c3ccc(C4=NCCCN4)cc3)o2)ccc1C1=NCCCN1`, the TGI was > 100 µM.
For `Oc1c(CN2CCOCC2)ccc(CN2CCOCC2)c1O`, the TGI was 82.8 µM.
With `CCC(O)CC1OC2(CCC1C)CC1OC(=O)/C=C\C(C)(O)C(O)C(C)C(O)C(OC3CC(OC)C(O)C(C)O3)C(O)C(C)(O)CCC/C=C/C3CC(C)COC3(O)CC(O2)C1C` (stereo not given) the TGI was > 75.2 µM.

The compounds below were run on T-47D breast (assay: growth of human tumour cells (NCI), 48 h).
Compound `O=C1C=CC(=O)c2c(O)c(N3CCN(c4ccccn4)CC3)c(Cl)c(O)c21` has a TGI of 3.07 µM.
Work on `C/C(=N\NC(=S)Nc1ccccc1)c1nc2ncccc2[nH]1` yielded a TGI of 24 µM.
With `c1cc(-c2ccc(-c3ccc(C4=NCCCN4)cc3)o2)ccc1C1=NCCCN1` the TGI was > 100 µM.
In the case of `Oc1c(CN2CCOCC2)ccc(CN2CCOCC2)c1O`, the TGI is reported as > 100 µM.
With `CCC(O)CC1OC2(CCC1C)CC1OC(=O)/C=C\C(C)(O)C(O)C(C)C(O)C(OC3CC(OC)C(O)C(C)O3)C(O)C(C)(O)CCC/C=C/C3CC(C)COC3(O)CC(O2)C1C` (stereo not given) the TGI was 23.6 µM.

The compounds below were run on MCF7 breast (assay: growth of human tumour cells (NCI), 48 h).
`O=C1C=CC(=O)c2c(O)c(N3CCN(c4ccccn4)CC3)c(Cl)c(O)c21` showed a TGI of 3.01 µM.
For `C/C(=N\NC(=S)Nc1ccccc1)c1nc2ncccc2[nH]1`, the TGI was 20.3 µM.
In the case of `c1cc(-c2ccc(-c3ccc(C4=NCCCN4)cc3)o2)ccc1C1=NCCCN1`, the TGI is reported as > 100 µM.
With `Oc1c(CN2CCOCC2)ccc(CN2CCOCC2)c1O` the TGI was > 100 µM.
With `CCC(O)CC1OC2(CCC1C)CC1OC(=O)/C=C\C(C)(O)C(O)C(C)C(O)C(OC3CC(OC)C(O)C(C)O3)C(O)C(C)(O)CCC/C=C/C3CC(C)COC3(O)CC(O2)C1C` (stereo not given) the TGI was 30.2 µM.

What follows are compounds tested on SNB-75 CNS (assay: growth of human tumour cells (NCI), 48 h).
`O=C1C=CC(=O)c2c(O)c(N3CCN(c4ccccn4)CC3)c(Cl)c(O)c21` gave a TGI of 3.43 µM.
`C/C(=N\NC(=S)Nc1ccccc1)c1nc2ncccc2[nH]1` gave a TGI of 79.2 µM.
`c1cc(-c2ccc(-c3ccc(C4=NCCCN4)cc3)o2)ccc1C1=NCCCN1` was tested, and the TGI was > 100 µM.
Work on `Oc1c(CN2CCOCC2)ccc(CN2CCOCC2)c1O` yielded a TGI of 75.3 µM.
With `CCC(O)CC1OC2(CCC1C)CC1OC(=O)/C=C\C(C)(O)C(O)C(C)C(O)C(OC3CC(OC)C(O)C(C)O3)C(O)C(C)(O)CCC/C=C/C3CC(C)COC3(O)CC(O2)C1C` (stereo not given) the TGI was 27.3 µM.

Each compound was assayed on SK-OV-3 ovarian (assay: growth of human tumour cells (NCI), 48 h).
`O=C1C=CC(=O)c2c(O)c(N3CCN(c4ccccn4)CC3)c(Cl)c(O)c21` gave a TGI of 21.2 µM.
For `C/C(=N\NC(=S)Nc1ccccc1)c1nc2ncccc2[nH]1`, the TGI was > 100 µM.
With `c1cc(-c2ccc(-c3ccc(C4=NCCCN4)cc3)o2)ccc1C1=NCCCN1` the TGI was > 100 µM.
In the case of `Oc1c(CN2CCOCC2)ccc(CN2CCOCC2)c1O`, the TGI is reported as > 100 µM.
In the case of `CCC(O)CC1OC2(CCC1C)CC1OC(=O)/C=C\C(C)(O)C(O)C(C)C(O)C(OC3CC(OC)C(O)C(C)O3)C(O)C(C)(O)CCC/C=C/C3CC(C)COC3(O)CC(O2)C1C` (stereo not given), the TGI is reported as > 100 µM.

Each compound was assayed on SNB-19 CNS (assay: growth of human tumour cells (NCI), 48 h).
With `O=C1C=CC(=O)c2c(O)c(N3CCN(c4ccccn4)CC3)c(Cl)c(O)c21` the TGI was 18 µM.
For `C/C(=N\NC(=S)Nc1ccccc1)c1nc2ncccc2[nH]1`, the TGI was 60.1 µM.
In the case of `c1cc(-c2ccc(-c3ccc(C4=NCCCN4)cc3)o2)ccc1C1=NCCCN1`, the TGI is reported as > 100 µM.
In the case of `Oc1c(CN2CCOCC2)ccc(CN2CCOCC2)c1O`, the TGI is reported as > 100 µM.
In the case of `CCC(O)CC1OC2(CCC1C)CC1OC(=O)/C=C\C(C)(O)C(O)C(C)C(O)C(OC3CC(OC)C(O)C(C)O3)C(O)C(C)(O)CCC/C=C/C3CC(C)COC3(O)CC(O2)C1C` (stereo not given), the TGI is reported as > 100 µM.

The compounds below were run on U251 CNS (assay: growth of human tumour cells (NCI), 48 h).
Work on `C/C(=N\NC(=S)Nc1ccccc1)c1nc2ncccc2[nH]1` yielded a TGI of 16.9 µM.
For `c1cc(-c2ccc(-c3ccc(C4=NCCCN4)cc3)o2)ccc1C1=NCCCN1`, the TGI was > 100 µM.
`Oc1c(CN2CCOCC2)ccc(CN2CCOCC2)c1O` was tested, and the TGI was > 100 µM.
`CCC(O)CC1OC2(CCC1C)CC1OC(=O)/C=C\C(C)(O)C(O)C(C)C(O)C(OC3CC(OC)C(O)C(C)O3)C(O)C(C)(O)CCC/C=C/C3CC(C)COC3(O)CC(O2)C1C` (stereo not given) was tested, and the TGI was > 100 µM.

These compounds were tested on MDA-N (assay: growth of human tumour cells (NCI), 48 h).
Work on `O=C1C=CC(=O)c2c(O)c(N3CCN(c4ccccn4)CC3)c(Cl)c(O)c21` yielded a TGI of 2.81 µM.
With `C/C(=N\NC(=S)Nc1ccccc1)c1nc2ncccc2[nH]1` the TGI was > 100 µM.
`c1cc(-c2ccc(-c3ccc(C4=NCCCN4)cc3)o2)ccc1C1=NCCCN1` was tested, and the TGI was > 100 µM.
For `Oc1c(CN2CCOCC2)ccc(CN2CCOCC2)c1O`, the TGI was > 100 µM.
`CCC(O)CC1OC2(CCC1C)CC1OC(=O)/C=C\C(C)(O)C(O)C(C)C(O)C(OC3CC(OC)C(O)C(C)O3)C(O)C(C)(O)CCC/C=C/C3CC(C)COC3(O)CC(O2)C1C` (stereo not given) gave a TGI of 23.8 µM.

The compounds below were run on A498 renal (assay: growth of human tumour cells (NCI), 48 h).
With `O=C1C=CC(=O)c2c(O)c(N3CCN(c4ccccn4)CC3)c(Cl)c(O)c21` the TGI was 9.68 µM.
For `C/C(=N\NC(=S)Nc1ccccc1)c1nc2ncccc2[nH]1`, the TGI was 33.1 µM.

From PubChem BioAssay (NCI)
